Data taken from publication PMC7551591, “The Effect of Resveratrol or Curcumin on Head and Neck Cancer Cells Sensitivity to the Cytotoxic Effects of Cisplatin” (Nutrients, 2020).

Tests used:
Format in all cases: cell-based, human
[1] = tested on: p21 protein (CIP1/CDKN1A) expression in PE/CA-PJ49; assay: Total p21 protein ELISA in cell lysates, tumor cells; settings: 24 h; for n-fold p21 Protein Expression PE/CA-PJ49: vs control
Experimental: After incubation, cells were washed twice with ice-cold PBS, scraped, pelleted and lysed in RIPA buffer (Pierce) supplemented with protease inhibitor cocktail (Roche) and phosphatase inhibitor (Roche) for 30 min on ice. The lysates were transfered into microcentrifuge tubes and centrifuged at 14,000× g for 5 min at 4 °C followed by sonication (10–15 s × 3). The supernatants were collected into clean microcentrifuge tubes and stored at −80 °C. Lysates protein concentration were quantified by BCA protein assay kit (Thermo Scientific) and aliquots of 50 μg of total cell lysate were used for ELISA assay.
DuoSetR IC ELISA-Human Total p21/CIP1/CDKN1A(: DYC1047-2) was purchased from R&D Systems Inc. and contains the basic components required for the development of sandwich ELISAs to measure human p21 protein also known as CIP1 and CDKN1A in cell lysates. An immobilized capture antibody specifically binds human p21. After washing away unbound material, a biotinylated detection antibody specific for human p21 is used to detect the captured protein, utilizing a standard Streptavidin-HRP format. All experiments were performed in triplicates and absorbance was measured at λ = 450 nm using a Dynex plate reader.
In cancer development and evolution p21 protein might acts as an oncogene or tumor suppressor and for this reason it could be an important player in processes such as the cancer aggressiveness or the response to chemotherapy. In this study, using ELISA assay we analyzed the expression level of p21 in the tumor cells (PE-CA/PJ49) compared to a normal cells (HUVEC).

PE/CA-PJ49 tumor cells [2] = assay: MTT drug sensitivity (viability) assay, tumor cells; settings: 24 h; for IC50: Homo sapiens; for IC50 / IC 25: MTT; for Selectivity Index (SI): IC50 in HUVEC / IC50 in PE/CA-PJ49
Experimental: (§1) The MTT assay is based on the ability of viable cells to reduce the reagent 3-(4,5-dimethylthiazol-2-yl)-2,5-diphenyltetrazolium bromide to colored formazan compounds [48]. Because the transformation is only possible in viable cells, the amount of blue formazan is proportional to the number of viable cells and thus, a linear dependence exists between cell activity and absorbance. Cells were seeded in triplicate in 96-well plates at a density of 5000 cells/well, incubated at 37 °C for 24 h. […] After the incubation period, 20 μL MTT (5 mg/mL in PBS) was added and further incubated for 4 h. The supernatant was removed, and the formazan product was analyzed spectrophotometrically (570 nm) after dissolution in DMSO. Wells without cells serve as a blank, and their absorbance was subtracted from the other results. Untreated cells were used as control and their viability was assumed as 100%. Results were expressed as mean values of three determinations ± standard deviation (SD). Data are presented as percent of cell viability and compared to untreated [Viability% = (T − B)/(U − B) × 100, {where T = absorbance of treated cells; U = absorbance of untreated cells, B = absorbance of blank}]. Once percent viability was obtained, the drug response curve was generated, and inhibitory concentration (IC50 and IC25) was calculated using GraphPad Prism version 5.01 [49].
(§2) SI values of more than 2 were considered as indicative of high selectivity.
(§3) The anticancer cytotoxic activity in vitro was evaluated by the MTT assay. […] The most widely used and informative measure of a drug’s efficacy is IC50-the half-maximal inhibitory concentration. IC50 was determined at half of the difference between the maximum (plateau) and minimum absorbance values, by plotting the absorbance value at 570 nm (Y axis) versus the concentration of the compound analysed (X axis). The IC50 values were reported as a mean of three independent experiments ± standard deviation (S.D.).

HUVEC normal cells = assay: MTT drug sensitivity (viability) assay, normal cells; settings: 24 h; for IC 25 / IC50: MTT; for IC50: Homo sapiens
Experimental: as §1, §2, §3

PE/CA-PJ49 tumor cells [3] = assay: Annexin V-FITC/PI apoptosis flow cytometry, tumor cells; settings: 24 h
Experimental: The apoptosis assay was carried out with the Annexin V-FITC kit using the manufacturer’s (BD Pharmingen) protocol. Treated and untreated 1 × 10^6 cells/mL were resuspended in cold binding buffer and staining simultaneously with 5 μL FITC-Annexin V (green fluorescence) and 5 μL propidium iodide (PI) in the dark, at room temperature for 15 min. Then, 400μL of Annexin V binding buffer was added and 10,000 cells/sample were acquired using a BD Canto II flow cytometer. The analysis was performed using DIVA 6.2 software in order to discriminate viable cells (FITC^−PI^−) from necrotic cells […] and early apoptosis (FITC^+PI^−) from late apoptosis.
Apoptosis can be seen as an efficient method of preventing malignant transformation, as it ensures the removal of cells which present with genetic alterations. Deficient apoptosis can promote the development of cancer, both through the accumulation of cells found during division and the blocking of the removal of cells with high malignant potential genetic variations. The factors which determine the cells to follow one of three possible pathways are not yet known – the start of apoptosis after cellular injury, the repair of the lesion or the continuation of the cellular cycle. Many therapeutical agents have anti-tumoral effects generated by their capacity to activate the apoptotic process. […] The flow cytometric analysis was performed using DIVA 6.2 software and allowed to discriminate viable cells (FITC^−PI^− = Q3) from necrotic cells (FITC^−PI^+ = Q1) and early apoptosis (FITC^+PI^− = Q4) from late apoptosis (FITC^+PI^+ = Q2).

PE/CA-PJ49 tumor cells [4] = assay: Cell cycle phase distribution by PI flow cytometry, tumor cells; settings: 24 h, RSV 40 μM
Experimental: For analysis of cell-cycle distribution, the cells were collected after treatment, fixed with 70% ethanol for at least one hour at 4 °C. The cells were stained with propidium iodide (PI) an agent which intercalates into the major groove of double-stranded DNA and produces a highly fluorescent adduct that can be excited at 488 nm with a broad emission around 600 nm. Since PI can also bind to double-stranded RNA, it is necessary to treat the cells with RNase for optimal DNA resolution. Cells (1×10^6 cells/mL) were washed in PBS and centrifuge at 300× g, 5 min at 4 °C. The pellet of the cells were incubated for 10 min at 37 °C with 0.5 mg/sample RNase A and then was added 10 μg/sample of PI staining solution to cell pellet, mix well and incubated 10 min at 37 °C. The samples stored at 4 °C until analyzed by flow cytometry. A minimum of 20,000 events for each sample were collected using a FACS CantoII flow cytometer and ModFIT software (BectonDickinson) and used to determine the cell cycle phase distribution after debris exclusion.
The progression through the cell cycle phases induced by treatment were evaluated by flow cytometry using a FACSCanto II flow cytometer. Data analysis were performed using the ModFit 3.2 program which offers the possibility of evaluating the cell cycle phases distribution (G0/G1, S, G2 + M).

COc1cc(/C=C/C(=O)CC(=O)/C=C/c2ccc(O)c(OC)c2)ccc1O [CRM, Curcumin]
p21 pg/mL PE/CA-PJ49 ([1]; 15 μM CRM): 941 pg/mL | n-fold p21 Protein Expression PE/CA-PJ49 ([1]; 15 μM CRM): 1.51 | cell viability (MTT) (PE/CA-PJ49 tumor cells [2]; 15 μM CRM, PE/CA-PJ49 vs HUVEC): reduced tumor cell viability compared to normal cells HUVEC | IC50 (PE/CA-PJ49 tumor cells [2]; PE/CA-PJ49): 16.3 ± 3.4 µM | Selectivity Index (SI) (PE/CA-PJ49 tumor cells [2]): 3.66 | IC 25 (PE/CA-PJ49 tumor cells [2]; PE/CA-PJ49): 7.9 ± 1.8 µM | IC 25 (HUVEC normal cells): 19.2 ± 2.1 µM | IC50 (HUVEC normal cells): 59.3 ± 6.1 µM | Early Apoptosis = Q4 (%) (PE/CA-PJ49 tumor cells [3]; 15 μM CRM): 19.1% | Late Apoptosis = Q2 (%) (PE/CA-PJ49 tumor cells [3]; 15 μM CRM): 9.1% | Necrosis = Q1 (%) (PE/CA-PJ49 tumor cells [3]; 15 μM CRM): 6.7% | Total Apoptosis = Q2 + Q4 (%) (PE/CA-PJ49 tumor cells [3]; 15 μM CRM): 28.2% | viability at 15 µM (PE/CA-PJ49 tumor cells [3]; Homo sapiens, 15 μM CRM, read-out: Q3 (viable cells, FITC−PI−)): 65.1%

Oc1ccc(C=Cc2cc(O)cc(O)c2)cc1 [RSV, 3,5,4′-trihydroxystilbene]
p21 pg/mL PE/CA-PJ49 ([1]; 40 μM RSV): 1550 pg/mL | n-fold p21 Protein Expression PE/CA-PJ49 ([1]; 40 μM RSV): 2.48 | IC50 (PE/CA-PJ49 tumor cells [2]; PE/CA-PJ49): 46.8 ± 2.6 µM | Selectivity Index (SI) (PE/CA-PJ49 tumor cells [2]): 2.36 | IC 25 (PE/CA-PJ49 tumor cells [2]; PE/CA-PJ49): 17.6 ± 1.5 µM | cell viability (MTT) (PE/CA-PJ49 tumor cells [2]; PE/CA-PJ49, RSV 40 μM vs untreated cells): significantly affected | IC 25 (HUVEC normal cells): 40.6 ± 3.3 µM | cell viability (MTT) (HUVEC normal cells; RSV 40 μM vs untreated cells): significantly affected | IC50 (HUVEC normal cells): 110 ± 8.6 µM | Early Apoptosis = Q4 (%) (PE/CA-PJ49 tumor cells [3]; 40 μM RSV): 17.7% | Late Apoptosis = Q2 (%) (PE/CA-PJ49 tumor cells [3]; 40 μM RSV): 9.5% | Necrosis = Q1 (%) (PE/CA-PJ49 tumor cells [3]; 40 μM RSV): 5.4% | Total Apoptosis = Q2 + Q4 (%) (PE/CA-PJ49 tumor cells [3]; 40 μM RSV): 27.2% | viability at 40 µM (PE/CA-PJ49 tumor cells [3]; Homo sapiens, 40 μM RSV, read-out: Q3 (viable cells, FITC−PI−)): 67.4% | G0/G1% (PE/CA-PJ49 tumor cells [4]): 39.05% | G2/M% (PE/CA-PJ49 tumor cells [4]): 19.41%
